The record followed here is patent publication US20070179161A1, “Pyrazolopyrimidine compounds and their use in medicine” (VERNALIS (CAMBRIDGE) LIMITED., priority 2003, published 2007).

What all share (assay type): biochemical
The target in test [1] is T1, PDK1 enzyme (Homo sapiens, UniProt O15530).
T1 sequence (O15530 1-556): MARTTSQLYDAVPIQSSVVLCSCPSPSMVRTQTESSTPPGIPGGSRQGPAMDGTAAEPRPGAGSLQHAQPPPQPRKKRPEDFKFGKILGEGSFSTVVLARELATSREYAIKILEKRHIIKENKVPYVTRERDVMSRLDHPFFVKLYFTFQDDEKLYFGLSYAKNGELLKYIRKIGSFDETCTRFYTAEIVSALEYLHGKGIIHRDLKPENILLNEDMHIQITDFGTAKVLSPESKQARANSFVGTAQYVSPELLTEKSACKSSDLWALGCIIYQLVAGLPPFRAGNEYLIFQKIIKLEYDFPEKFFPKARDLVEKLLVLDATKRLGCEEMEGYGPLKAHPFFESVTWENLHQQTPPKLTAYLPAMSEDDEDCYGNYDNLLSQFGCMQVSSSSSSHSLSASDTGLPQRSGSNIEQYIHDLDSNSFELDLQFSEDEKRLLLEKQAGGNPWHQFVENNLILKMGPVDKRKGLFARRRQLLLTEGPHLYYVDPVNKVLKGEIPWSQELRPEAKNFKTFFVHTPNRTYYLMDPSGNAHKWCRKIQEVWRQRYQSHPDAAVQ
Briefly: PDK1 kinase inhibition assay (33P phosphorylation of synthetic peptide, filter plate). Conditions: 0.01 mM ATP, 60 min at 30° C.; read-out: PDK1 IC50. As for the experimental part:
(§1) The assay mixture containing the inhibitor and PDK1 enzyme was mixed together in a microtiter plate in a final volume of 50 μl and incubated for 60 min at 30° C. The assay mixture contained 0.01 mM unlabeled ATP, 0.01 μCi/μl ^33P-γ-ATP, 0.075 mM peptide, 0.1 mg/ml BSA, 7.5 mM magnesium acetate, 0.05M Tris.HCl, pH 7.5, 0.5% 2-mercaptoethanol. The reaction was stopped by adding 50 μl of 50 mM phosphoric acid. 90 μl of the mixture were transferred to a pre-wetted 96-well Multiscreen MAPHNOB filtration plate (Millipore) and filtered on a vacuum manifold. […] The filtration plate was dried for 10 min at 65° C., scintillant added and phosphorylated peptide quantified in a scintillation counter (Trilux, PerkinElmer)

For test [2], the target named is CDK-2 enzyme, complexed with cyclin A (Homo sapiens, UniProt P24941). Description: CDK2 enzyme inhibition assay (33P phosphorylation of peptide […], filter plate). Conditions: CDK-2/cyclin A, 0.1 mM ATP, 40 min at 30° C. On the procedure:
as §1, with “and CDK-2 enzyme, complexed with cyclin A (0.4 U/ml)” for “and PDK1 enzyme”, “for 40” for “for 60”, “contained 0.1” for “contained 0.01”, “^33P-γ-ATP, 0.03” for “^33P-γ-ATP, 0.075”, “acetate, 50 mM HEPES-NaOH,” for “acetate, 0.05M Tris.HCl,”, “pH 7.5.” for “pH 7.5, 0.5% 2-mercaptoethanol.”
HEPES is N-[2-Hydroxyethyl]piperazine-N′-[2-ethanesulfonic acid] BSA is bovine serum albumin.

The target in test [3] is T2, GST-Chk1 enzyme (Homo sapiens, UniProt O14757).
T2 sequence (O14757 1-476): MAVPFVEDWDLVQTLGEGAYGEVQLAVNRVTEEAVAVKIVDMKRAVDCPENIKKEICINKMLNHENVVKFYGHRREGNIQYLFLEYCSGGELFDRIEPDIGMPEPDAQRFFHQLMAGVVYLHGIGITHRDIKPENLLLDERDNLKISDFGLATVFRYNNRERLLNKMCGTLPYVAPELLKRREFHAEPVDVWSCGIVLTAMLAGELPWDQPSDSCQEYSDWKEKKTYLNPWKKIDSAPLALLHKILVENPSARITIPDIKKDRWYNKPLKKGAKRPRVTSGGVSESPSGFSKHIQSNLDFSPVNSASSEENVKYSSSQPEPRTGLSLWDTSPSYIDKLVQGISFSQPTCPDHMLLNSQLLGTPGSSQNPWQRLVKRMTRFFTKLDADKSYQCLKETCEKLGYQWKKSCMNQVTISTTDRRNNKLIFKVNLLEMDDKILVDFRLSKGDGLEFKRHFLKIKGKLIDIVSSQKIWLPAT
Description: Chk1 kinase inhibition assay (33P phosphorylation of Chktide, filter plate). Conditions: 0.01 mM ATP, 11 nM GST-Chk1, 40 minutes at 30° C.; read-out: Chk1 IC50. As for the experimental part:
The assay mixture containing the inhibitor and Chk1 enzyme was mixed together in a microtiter plate in a final volume of 50 μl and incubated for 40 minutes at 30° C.
The reaction was stopped by adding 50 μl of 50 mM phosphoric acid. 90 μl of the mixture was transferred to a pre-wetted 96-well Multiscreen MAPHNOB filtration plate (Millipore) and filtered on a vacuum manifold. […] The filtration plate was dried for 10 min at 65° C., scintillant added and phosphorylated peptide quantified in a scintillation counter (Trilux, PerkinElmer)

Each structure is given as a SMILES string. Some results are limits rather than exact numbers.

For the compound `CC(C)c1cnn2c(Nc3ccc(S(=O)(=O)N(C)C)cc3)cc(NC3CCC(N)C3)nc12` (stereo not drawn) [Example 150], the figures for the IC50 in test [1], in test [2] and in test [3] were 13000 nM, 478 nM and 2000 nM, respectively.

With `CC(C)c1cnn2c(Nc3ccc(S(=O)(=O)N(C)CCO)cc3)cc(Cl)nc12` [Example 34], the IC50 (commonly the concentration that gives 50% inhibition) was greater than 200000 nM in test [1], 127 nM in test [2] and greater than 200000 nM in test [3].

On to `CCCN(CCC)[C@H]1CC[C@H](Nc2cc(Nc3ccc(S(=O)(=O)N(C)C)cc3)n3ncc(C(C)C)c3n2)CC1` [Example 125], for which the IC50 in test [1] amounted to 19900 nM; in test [2], 155 nM; in test [3] it was 20500 nM.

`CCN(CC)c1cc(Nc2ccc(S(=O)(=O)N(C)C)cc2)n2ncc(C(C)C)c2n1` [Example 71]: the half-maximal inhibitory concentration (IC50) in test [1] is greater than 200000 nM; in test [2], 655 nM; in test [3], greater than 200000 nM.

Take `CC(C)c1cnn2c(Nc3ccc(S(=O)(=O)N(C)C)cc3)cc(N3CCN(CC4CCN(C)CC4)CC3)nc12` [Example 109]: the IC50 in test [1] is greater than 200000 nM; in test [2], 10300 nM; in test [3] it was 15200 nM.

`CN(C)S(=O)(=O)c1ccc(Nc2cc(N[C@H]3CC[C@H](N)CC3)nc3c(C4CC4)cnn23)cc1` [Example 128]: the concentration for half-maximal inhibition (IC50) in test [1] was determined as 178 nM; in test [2], 22 nM; in test [3], 1030 nM.

Take `Cc1noc(C)c1-c1cc(Nc2ccc(F)cc2)n2nccc2n1` [Example 2, 5-(3,5-Dimethylisoxazole)-7-(4-fluorophenylamino)pyrazolo[1,5-a]pyrimidine]: the values for the IC50 in test [1], in test [2] and in test [3] were greater than 200000 nM, 13400 nM and greater than 200000 nM, respectively.

In the case of `CC(C)c1cnn2c(Nc3ccc(S(=O)(=O)N(C)C)cc3)cc(NCCCN3CCN(C)CC3)nc12` [Example 124], the values for the IC50 in test [1], in test [2] and in test [3] were greater than 200000 nM, 22100 nM and greater than 200000 nM, respectively.

`CCc1cnn2c(Nc3ccc(S(C)(=O)=O)cc3)cc(N[C@H]3CC[C@@H](N)CC3)nc12` [Example 173]: the values for the IC50 in test [1], in test [2] and in test [3] were 15200 nM, 2170 nM and 4000 nM, respectively.

As for `CS(=O)(=O)c1ccc(Nc2cc(N[C@H]3CC[C@@H](N)CC3)nc3c(Br)cnn23)cc1` [Example 164], the IC50 in test [1] turned out to be 4700 nM; in test [2], 222 nM; in test [3], 250 nM.

For `CCc1cnn2c(Nc3ccc(S(=O)(=O)N(C)C)cc3)cc(N[C@H]3CC[C@H](N)CC3)nc12` [Example 57], the IC50 was found to be 2440 nM in test [1], 69 nM in test [2] and 2610 nM in test [3].

For the compound `CN(C)S(=O)(=O)c1ccc(Nc2cc(N[C@H]3CC[C@H](N)CC3)nc3c(-c4ccsc4)cnn23)cc1` [Example 154], the 50% inhibitory concentration (IC50) is greater than 200000 nM in test [1], 1420 nM in test [2] and 630 nM in test [3].

Take `O=S(=O)(Nc1nccs1)c1ccc(Nc2cc(Cl)nc3ccnn23)cc1` [Example 11]: the half-maximal inhibitory concentration (IC50) in test [1] was greater than 200000 nM; in test [2], 1310 nM; in test [3], greater than 200000 nM.

Turning to `CCc1cnn2c(Nc3ccc(S(C)(=O)=O)cc3)cc(Cl)nc12` [Example 43], the IC50 in test [1] was greater than 200000 nM; in test [2], 107 nM; in test [3] it was greater than 200000 nM.

Consider `CC(C)c1cnn2c(Nc3ccc(S(=O)(=O)NCC4CCCO4)cc3)cc(Cl)nc12` (stereo not drawn) [Example 35], for which the IC50 was greater than 200000 nM in test [1], 191 nM in test [2] and greater than 200000 nM in test [3].

`CCc1cnn2c(Nc3ccc(C(N)=O)cc3)cc(Cl)nc12` [Example 149]: the half-inhibitory concentration (IC50) came to 57000 nM in test [1], 140 nM in test [2] and 10000 nM in test [3].

On to `O=S(=O)(Nc1nccs1)c1ccc(Nc2cc(OC3CCCCC3)nc3ccnn23)cc1` [Example 14], for which the IC50 in test [1] is 24600 nM; in test [2] it was 590 nM; in test [3], greater than 200000 nM.

For the compound `CN(C)S(=O)(=O)c1ccc(Nc2cc(N[C@H]3CC[C@H](N)CC3)nc3c(C#N)cnn23)cc1` [Example 199], the IC50 in test [1] is 1350 nM; in test [2], 7 nM; in test [3], 330 nM.

Consider `Oc1cccc(-c2cc(Nc3ccccc3)n3nccc3n2)c1` [Example 6], for which the IC50 in test [1] is greater than 200000 nM; in test [2], 5650 nM; in test [3] it was greater than 200000 nM.

As for `CN(C)S(=O)(=O)c1cccc(Nc2cc(N[C@H]3CC[C@H](N)CC3)nc3c(Br)cnn23)c1` [Example 94], the IC50 in test [1] is greater than 200000 nM; in test [2] it was 70 nM; in test [3] it was 27000 nM.

With `CC(C)c1cnn2c(Nc3ccc(S(=O)(=O)N(C)C)cc3)cc(N(C)C3CCN(C)CC3)nc12` [Example 87], the IC50 was greater than 200000 nM in test [1], 840 nM in test [2] and 16300 nM in test [3].

Turning to `CN(C)S(=O)(=O)c1ccc(Nc2cc(N[C@H]3CC[C@H](N)CC3)nc3c(Cl)cnn23)cc1` [Example 148], the results for the IC50 in test [1], in test [2] and in test [3] were 1540 nM, 4 nM and 2000 nM, respectively.

In the case of `N[C@H]1CC[C@@H](Nc2cc(Nc3ccc(S(=O)(=O)N4CCCC4)cc3)n3ncc(Br)c3n2)CC1` [Example 178], the 50% inhibitory concentration (IC50) in test [1] was 2580 nM; in test [2] it was 150 nM; in test [3] it was 70 nM.

With `CCNC(=O)c1cc(Nc2ccc(S(=O)(=O)N(C)C)cc2)n2ncc(C(C)C)c2n1` [Example 115], the results for the IC50 in test [1], in test [2] and in test [3] were greater than 200000 nM, 7890 nM and greater than 200000 nM, respectively.

For the compound `CN(C)S(=O)(=O)c1ccc(Nc2cc(N[C@H]3CC[C@H](N)CC3)nc3c(Br)cnn23)cc1` [Example 31, 3-bromo-5-(trans-4-aminocyclohexylamino)-7-(4-(N,N-dimethylsulphonamido)phenylamino)pyrazolo[1,5-a]pyrimidine], the values for the IC50 in test [1], in test [2] and in test [3] were 325 nM, 8 nM and 1270 nM, respectively.

Regarding `CC(C)c1cnn2c(Nc3ccc(S(=O)(=O)N(C)C)cc3)cc(N[C@H]3CC[C@H](NC(N)=O)CC3)nc12` [Example 141], the figures for the IC50 in test [1], in test [2] and in test [3] were 9000 nM, 142 nM and 13000 nM, respectively.

As to `CC(C)c1cnn2c(Nc3ccc(S(=O)(=O)N(C)CCO)cc3)cc(N3CCC(O)CC3)nc12` [Example 48], the values for the IC50 in test [1], in test [2] and in test [3] were greater than 200000 nM, 1460 nM and greater than 200000 nM, respectively.

Regarding `CN(C)S(=O)(=O)c1ccc(Nc2cc(N[C@H]3CC[C@@H](N)CC3)nc3c(Br)cnn23)cc1` [Example 140], the IC50 in test [1] came out at 5290 nM; in test [2] it was 3660 nM; in test [3], 500 nM.

Consider `CN(C)CCNS(=O)(=O)c1ccc(Nc2cc(Cl)nc3c(Br)cnn23)cc1` [Example 135], for which the 50% inhibitory concentration (IC50) in test [1] was greater than 50000 nM; in test [2] it was 81 nM; in test [3] it was 43000 nM.
